From the NIST ThermoML archive (doi:10.1016/j.fluid.2013.07.012)
Numbers after ± are expanded uncertainties.

Assay: xn = mol fraction of the nth substance listed
Settings: 101 kPa, Liquid, Direct current cell with electrodes

Structure (SMILES)	electrical conductivity (298.15 K, x1 = 0.2) [S/m]	electrical conductivity (298.15 K, x1 = 0.25) [S/m]	electrical conductivity (303.15 K, x1 = 0.2) [S/m]	electrical conductivity (303.15 K, x1 = 0.25) [S/m]	electrical conductivity (308.15 K, x1 = 0.2) [S/m]	electrical conductivity (308.15 K, x1 = 0.25) [S/m]	electrical conductivity (313.15 K, x1 = 0.2) [S/m]	electrical conductivity (313.15 K, x1 = 0.25) [S/m]	electrical conductivity (318.15 K, x1 = 0.2) [S/m]	electrical conductivity (318.15 K, x1 = 0.25) [S/m]	electrical conductivity (323.15 K, x1 = 0.2) [S/m]	electrical conductivity (323.15 K, x1 = 0.25) [S/m]	electrical conductivity (328.15 K, x1 = 0.2) [S/m]	electrical conductivity (328.15 K, x1 = 0.25) [S/m]	electrical conductivity (333.15 K, x1 = 0.2) [S/m]	electrical conductivity (333.15 K, x1 = 0.25) [S/m]	electrical conductivity (338.15 K, x1 = 0.2) [S/m]	electrical conductivity (338.15 K, x1 = 0.25) [S/m]	electrical conductivity (343.15 K, x1 = 0.2) [S/m]	electrical conductivity (343.15 K, x1 = 0.25) [S/m]	also measured
C[P+](c1ccccc1)(c1ccccc1)c1ccccc1.[Br-] [methyltriphenylphosphonium bromide] + OCCO	0.156 ± 0.0026	0.109 ± 0.0021	0.219 ± 0.0023	0.16 ± 0.0018	0.2649 ± 0.0022	0.1914 ± 0.0019	0.3246 ± 0.0025	0.2502 ± 0.0022	0.3858 ± 0.0024	0.2964 ± 0.0016	0.4405 ± 0.0031	0.3265 ± 0.0028	0.5395 ± 0.0037	0.4307 ± 0.0038	0.6221 ± 0.0041	0.5129 ± 0.003	0.7423 ± 0.004	0.5797 ± 0.0036	0.8192 ± 0.0034	0.6923 ± 0.0032	electrical conductivity (298.15 K, x1 = 0.16): 0.194 ± 0.0026 S/m; electrical conductivity (303.15 K, x1 = 0.16): 0.257 ± 0.002 S/m; electrical conductivity (308.15 K, x1 = 0.16): 0.3103 ± 0.0026 S/m; electrical conductivity (313.15 K, x1 = 0.16): 0.3845 ± 0.0027 S/m; electrical conductivity (318.15 K, x1 = 0.16): 0.4437 ± 0.0025 S/m; electrical conductivity (323.15 K, x1 = 0.16): 0.5072 ± 0.0037 S/m; electrical conductivity (328.15 K, x1 = 0.16): 0.6279 ± 0.0041 S/m; electrical conductivity (333.15 K, x1 = 0.16): 0.711 ± 0.004 S/m; electrical conductivity (338.15 K, x1 = 0.16): 0.8169 ± 0.0048 S/m; electrical conductivity (343.15 K, x1 = 0.16): 0.9496 ± 0.0043 S/m; electrical conductivity (348.15 K, x1 = 0.16): 1.031 ± 0.003 S/m; electrical conductivity (348.15 K, x1 = 0.2): 0.9074 ± 0.0037 S/m; electrical conductivity (348.15 K, x1 = 0.25): 0.7372 ± 0.0025 S/m; electrical conductivity (353.15 K, x1 = 0.16): 1.12 ± 0.0036 S/m; electrical conductivity (353.15 K, x1 = 0.2): 1.003 ± 0.0033 S/m; electrical conductivity (353.15 K, x1 = 0.25): 0.8114 ± 0.003 S/m
C[P+](c1ccccc1)(c1ccccc1)c1ccccc1.[Br-] [methyltriphenylphosphonium bromide] + OCC(O)CO	0.0116 ± 0.0006	0.0103 ± 0.0006	0.0198 ± 0.0006	0.0172 ± 0.0006	0.037 ± 0.001	0.0319 ± 0.0006	0.041 ± 0.001	0.0394 ± 0.0006	0.0607 ± 0.0006	0.0549 ± 0.0006	0.0816 ± 0.0006	0.0719 ± 0.0006	0.0965 ± 0.0006	0.0927 ± 0.0006	0.1233 ± 0.0006	0.1124 ± 0.0006	0.1608 ± 0.0006	0.1487 ± 0.0006	0.1971 ± 0.0007	0.1778 ± 0.0006	electrical conductivity (298.15 K, x1 = 0.34): 0.0062 ± 0.0006 S/m; electrical conductivity (303.15 K, x1 = 0.34): 0.0124 ± 0.0006 S/m; electrical conductivity (308.15 K, x1 = 0.34): 0.0186 ± 0.0006 S/m; electrical conductivity (313.15 K, x1 = 0.34): 0.0277 ± 0.0006 S/m; electrical conductivity (318.15 K, x1 = 0.34): 0.0405 ± 0.0006 S/m; electrical conductivity (323.15 K, x1 = 0.34): 0.0496 ± 0.0006 S/m; electrical conductivity (328.15 K, x1 = 0.34): 0.0701 ± 0.0006 S/m; electrical conductivity (333.15 K, x1 = 0.34): 0.0858 ± 0.0006 S/m; electrical conductivity (338.15 K, x1 = 0.34): 0.116 ± 0.001 S/m; electrical conductivity (343.15 K, x1 = 0.34): 0.1493 ± 0.0006 S/m; electrical conductivity (348.15 K, x1 = 0.2): 0.2874 ± 0.0007 S/m; electrical conductivity (348.15 K, x1 = 0.25): 0.2196 ± 0.0006 S/m; electrical conductivity (348.15 K, x1 = 0.34): 0.1811 ± 0.0006 S/m; electrical conductivity (353.15 K, x1 = 0.2): 0.3594 ± 0.0007 S/m; electrical conductivity (353.15 K, x1 = 0.25): 0.2599 ± 0.0007 S/m; electrical conductivity (353.15 K, x1 = 0.34): 0.2154 ± 0.0006 S/m
